The assay deals with PAF-induced rabbit platelet aggregation. Kind of assay: PAF-induced rabbit platelet aggregation. Conditions: Oryctolagus cuniculus, read-out: IC50, inhibition of PAF-induced rabbit platelet aggregation. The format is cell-based, rabbit (New Zealand white). The protocol:
Pharmacology Example 1: PAF-induced rabbit platelet aggregation
Blood was collected from the ear artery of a male New Zealand white rabbit and mixed with 3.8% sodium citrate in a 9:1 volume ratio. Platelet rich plasma (PRP) was obtained by centrifugation of the blood at 150 g for 10 min at room temperature. The number of platelets was adjusted to 3×10^8 platelets/ml with platelet poor plasma. Platelet aggregation was monitored by continuous recording of light transmission in a dual-channel aggregometer (Chrono-Log 560-VS) coupled with a two channel recorder (Chrono-Log 707). Stirred PRP was treated with various concentrations of the test compounds or vehicle (0.5% DMSO) for 2 min and then PAF(5×10^-9 M) was added to induce platelet aggregation.
Inhibition values were calculated by comparing the extent of aggregation obtained in the presence of the vehicle alone (0.5% DMSO) and in the presence of a test compound. Log concentration-response curves were generated and the IC50 values were determined by regression analysis.
Table 1 lists results from this assay for inhibition of PAF-induced rabbit platelet aggregation for illustrative examples of the compounds of this invention.

Structures are written as SMILES. Where two headings read alike, the source gives them in different places.

In general, IC50 refers to the concentration that inhibits the measured activity by half. Regarding `CCCOc1ccc(C)nc1COC1C(=O)OC2OC34C(=O)OC5CC(C(C)(C)C)C21C53C(O)C1OC(=O)C(C)C14O` (stereo not shown) [Example 112], the IC50 (rabbit PRP, PAF 5×10^-9 M) came out at 124 nM.

Regarding `CC1C(=O)OC2C(O)C34C5CC(C(C)(C)C)C36C(OC(=O)C6OCCBr)OC4(C(=O)O5)C12O` (stereo not shown) [Example 116, 10-(2'-bromoethoxy)-Ginkgolide B], for the setting “rabbit PRP, PAF 5×10^-9 M”, the concentration for half-maximal inhibition (IC50) stood at 113 nM.

As to `CC1C(=O)OC2C(O)C34C5CC(C(C)(C)C)C36C(OC(=O)C6OCc3cc([N+](=O)[O-])ccn3)OC4(C(=O)O5)C12O` (stereo not shown) [Example 111, 10-(4-nitro-2-myridinyl)-methoxy Ginkgolide B], the IC50 (rabbit PRP, PAF 5×10^-9 M) was 107 nM.

Consider `CC1C(=O)OC2C(O)C34C5CC(C(C)(C)C)C36C(OC(=O)C6OCc3ccc(Cl)nc3)OC4(C(=O)O5)C12O` (stereo not shown) [Example 107, 10-(6-chloro-3-pyridinyl)-methoxy-Ginkgolide B], for which the IC50 (rabbit PRP, PAF 5×10^-9 M) was found to be 157 nM.

`CC1C(=O)OC2C(O)C34C5CC(C(C)(C)C)C36C(OC(=O)C6OCc3ccc(O)cc3)OC4(C(=O)O5)C12O` (stereo not shown) [Example 25]: the IC50 (rabbit PRP, PAF 5×10^-9 M) was found to be 57.1 nM.

With `CC1C(=O)OC2C(O)C34C5CC(C(C)(C)C)C36C(OC(=O)C6OCc3ccc(Cl)c(Cl)c3)OC4(C(=O)O5)C12O` (stereo not shown) [Example 11], the IC50 (rabbit PRP, PAF 5×10^-9 M) came out at 101 nM.

Take `COc1cc(COC2C(=O)OC3OC45C(=O)OC6CC(C(C)(C)C)C32C64C(O)C2OC(=O)C(C)C25O)cc(OC)c1O` (stereo not shown) [Example 32]: where the note is “rabbit PRP, PAF 5×10^-9 M”, the IC50 worked out at 65.1 nM.

For `COCCOCOc1ccc(COC2C(=O)OC3OC45C(=O)OC6CC(C(C)(C)C)C32C64C(O)C2OC(=O)C(C)C25O)nc1` (stereo not shown) [Example 114], the IC50 was 139 nM.

`CC1C(=O)OC2C(O)C34C5CC(C(C)(C)C)C36C(OC(=O)C6OCc3cccc([N+](=O)[O-])c3)OC4(C(=O)O5)C12O` (stereo not shown) [Example 63]: the concentration for half-maximal inhibition (IC50) came out at 62.7 nM.

Regarding `CC1C(=O)OC2C(O)C34C5CC(C(C)(C)C)C36C(OC(=O)C6OCc3c(F)c(F)c(F)c(F)c3F)OC4(C(=O)O5)C12O` (stereo not shown) [Example 83, 10-(2',3',4',5',6'-pentafluorobenzyloxy)-Ginkgolide B], the IC50 came out at 71.7 nM.

On to `CC1C(=O)OC2C(O)C34C5CC(C(C)(C)C)C36C(OC(=O)C6OCc3cc(C(C)(C)C)c(O)c(C(C)(C)C)c3)OC4(C(=O)O5)C12O` (stereo not shown) [Example 31], for which, where the note is “rabbit PRP, PAF 5×10^-9 M”, the IC50 was found to be 78.1 nM.

`CC1C(=O)OC2C(O)C34C5CC(C(C)(C)C)C36C(OC(=O)C6OCc3ccc(I)cc3)OC4(C(=O)O5)C12O` (stereo not shown) [Example 5]: the IC50 worked out at 50.1 nM.

On to `CC1C(=O)OC2C(O)C34C5CC(C(C)(C)C)C36C(OC(=O)C6OCc3ccc(OC(F)(F)F)cc3)OC4(C(=O)O5)C12O` (stereo not shown) [Example 24], for which the IC50 amounted to 42.1 nM.

For the compound `COc1ccc(COC2C(=O)OC3OC45C(=O)OC6CC(C(C)(C)C)C32C64C(O)C2OC(=O)C(C)C25O)cc1` (stereo not shown) [Example 14, 10-(4'-methoxybenzyloxy)-Ginkgolide B], under “rabbit PRP, PAF 5×10^-9 M”, the IC50 came to 85.8 nM.

On to `CC1C(=O)OC2C(OC(=O)c3ccccc3)C34C5CC(C(C)(C)C)C36C(OC(=O)C6O)OC4(C(=O)O5)C12O` (stereo not shown) [Example 89, 1-benzoyloxy-Ginkgolide B], for which the IC50 (rabbit PRP, PAF 5×10^-9 M) amounted to 62.1 nM.

In the case of `CC1C(=O)OC2C(O)C34C5CC(C(C)(C)C)C36C(OC(=O)C6OCc3ccccc3)OC4(C(=O)O5)C12O` (stereo not shown) [Example 1, 10-benzyloxy-Ginkgolide B], the half-maximal inhibitory concentration (IC50) (rabbit PRP, PAF 5×10^-9 M) amounted to 68.8 nM.

For `CC1C(=O)OC2C(O)C34C5CC(C(C)(C)C)C36C(OC(=O)C6OCc3ccc(F)cc3)OC4(C(=O)O5)C12O` (stereo not shown) [Example 85, 10-(4'-fluorobenzyloxy)-Ginkgolide B], the concentration for half-maximal inhibition (IC50) (rabbit PRP, PAF 5×10^-9 M) was found to be 32.1 nM.

With `CC1C(=O)OC2C(O)C34C5CC(C(C)(C)C)C36C(OC(=O)C6OCc3ccc(F)cc3F)OC4(C(=O)O5)C12O` (stereo not shown) [Example 86, 10-(2',4'-difluorobenzyloxy)-Ginkgolide B], the IC50 came out at 50.1 nM.

With `CC1C(=O)OC2C(O)C34C5CC(C(C)(C)C)C36C(OC(=O)C6OCc3ccncc3)OC4(C(=O)O5)C12O` (stereo not shown) [Example 109, 10-(4-pyridinyl)-methoxy-Ginkgolide B], for the setting “rabbit PRP, PAF 5×10^-9 M”, the IC50 was found to be 122 nM.

The values above are taken from patent publication US5541183A, “Ginkgolide derivatives” (priority 1993, dated 1996).
